Data published in PMC6990627 (ACS Omega, 2020).
pIC50: −log10 of the molar value. Counter-ions that a name gives are not always drawn. Like-named read-outs stand apart in the source and are kept apart here.

Legend:
[1] = biological target: EeAChE (Electrophorus electricus, UniProt O42275); assay: Ellman assay, EeAChE inhibition; assay type: biochemical; conditions: average of three determinations
[2] = biological target: T1, eqBChE (Equus caballus, UniProt P81908); assay: Ellman assay, eqBChE inhibition; assay type: biochemical, equine; conditions: screened at 10 and 100 μM
T1 sequence (P81908 whole entry): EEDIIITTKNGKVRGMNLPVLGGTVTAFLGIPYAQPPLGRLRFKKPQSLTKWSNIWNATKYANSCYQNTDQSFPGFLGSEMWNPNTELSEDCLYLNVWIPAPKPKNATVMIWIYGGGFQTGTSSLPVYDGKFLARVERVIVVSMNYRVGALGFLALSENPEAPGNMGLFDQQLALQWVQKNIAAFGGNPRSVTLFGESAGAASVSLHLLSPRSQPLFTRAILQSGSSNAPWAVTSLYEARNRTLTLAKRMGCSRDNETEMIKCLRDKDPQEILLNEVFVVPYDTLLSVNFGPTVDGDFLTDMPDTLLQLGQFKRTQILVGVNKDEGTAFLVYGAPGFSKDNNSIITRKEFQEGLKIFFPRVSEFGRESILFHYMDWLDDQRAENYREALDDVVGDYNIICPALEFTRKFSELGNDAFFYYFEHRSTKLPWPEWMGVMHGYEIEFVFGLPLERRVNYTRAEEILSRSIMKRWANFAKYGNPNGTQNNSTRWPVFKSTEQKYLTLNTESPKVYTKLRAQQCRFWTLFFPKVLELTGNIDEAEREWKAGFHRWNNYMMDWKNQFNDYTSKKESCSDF

[3] = tested on: AChE; conditions: read-out: AChE IC50, cited from earlier work
[4] = biological target: T1, eqBChE; assay: Enzyme kinetics; assay type: biochemical, equine; conditions: Lineweaver-Burk plot

EeAChE, sequence (O42275 24-633): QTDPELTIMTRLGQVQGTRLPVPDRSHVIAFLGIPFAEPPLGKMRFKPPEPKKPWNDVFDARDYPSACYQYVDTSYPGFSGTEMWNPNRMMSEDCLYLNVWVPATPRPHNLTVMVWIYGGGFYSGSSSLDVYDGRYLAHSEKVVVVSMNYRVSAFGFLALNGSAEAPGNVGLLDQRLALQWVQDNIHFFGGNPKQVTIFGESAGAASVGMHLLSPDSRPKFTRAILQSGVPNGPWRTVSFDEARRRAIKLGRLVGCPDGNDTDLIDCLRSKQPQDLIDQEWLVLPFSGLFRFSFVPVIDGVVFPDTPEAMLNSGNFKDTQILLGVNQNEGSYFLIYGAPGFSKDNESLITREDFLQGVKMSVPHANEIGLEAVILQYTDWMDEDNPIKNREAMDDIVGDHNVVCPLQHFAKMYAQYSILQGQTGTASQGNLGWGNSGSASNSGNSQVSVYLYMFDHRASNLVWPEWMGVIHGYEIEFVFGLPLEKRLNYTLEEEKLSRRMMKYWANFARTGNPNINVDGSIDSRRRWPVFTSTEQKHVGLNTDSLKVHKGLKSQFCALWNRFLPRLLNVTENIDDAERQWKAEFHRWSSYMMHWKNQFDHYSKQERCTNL

Row | Compound | pIC50 [1] | activity against BChE (in words) [2] | pIC50 ([3]; ref 19) | type of inhibition, eqBChE [4] | pIC50 ([3]; ref 20)
1 | COc1cc(O)c2c(c1)C(=O)c1cc(C)cc(O)c1C2=O [physcion] | 4.92 | weakly active | 5.08 | – | –
2 | COc1cc2c(cc1OC)C(=O)C(CC1CCN(Cc3ccccc3)CC1)C2 (stereo not drawn) [donepezil HCl, donepezil hydrochloride] | – | – | – | noncompetitive | –
3 | Cc1cc(O)c2c(c1)C(=O)c1cccc(O)c1C2=O [chrysophanol] | 4.47 | weakly active | 4.16 | – | 4.12
4 | Cc1cc(O)c2c(c1)C(=O)c1cc(O)cc(O)c1C2=O [emodin] | 4.82 | weakly active | 5.04 | – | 4.66
